Data from patent publication US10766903B2 (ALMAC DISCOVERY LIMITED, priority 2016, dated 2020).
pIC50: −log10 of the molar value. Like-named read-outs stand apart in the source and are kept apart here.

Target: USP7 (Homo sapiens (Human), UniProt Q93009)
Assay: USP7 fluorescence polarisation (FP) biochemical assay, ubiquitin-Lys-TAMRA substrate
Description: Measurement of USP7 Inhibitory Activity
USP7 activity was monitored in a fluorescence polarisation (FP) homogeneous assay using the isopeptide ubiquitin-Lys-TAMRA substrate (U-558, Boston Biochem). Full-length USP7 was purchased from Boston Biochem (His6-USP7FL, E-519). Unless otherwise stated, all other reagents were purchased from Sigma-Aldrich. Enzymatic reactions were conducted in black flat-bottom polystyrene 384-well plates (Nunc) and 15 μL total volume. USP7 (2.5 nM, 5 μL) was incubated in assay buffer (50 mM HEPES (pH 7.2), 150 mM NaCl, 0.5 mM EDTA, 5 mM DTT, 0.05% BSA (w/v), 0.05% CHAPS) in the presence or absence of inhibitor (5 μl). Inhibitors were stored as 10 mM DMSO stocks in an inert environment (low humidity, dark, low oxygen, room temperature) using a Storage Pod System and serial dilutions were prepared in buffer just prior to the assay (from 200 to 0.1 μM, 8 dp curve). […] FP was measured every 15 min over a period of 1.5 h (within the linear range of the assay) using a Synergy 4 plate reader (BioTek) exciting at 530 nm and measuring the amount of parallel and perpendicular light at 575 nm. The FP signal was subsequently normalised to the control without compound present.

[1] = Table 4, biochemical assay, average of at least duplicate experiments, read-out: USP7 IC50
[2] = USP7 IC50, Table 4, biochemical assay, average of at least duplicate experiments

Chain of USP7 (Q93009 whole entry): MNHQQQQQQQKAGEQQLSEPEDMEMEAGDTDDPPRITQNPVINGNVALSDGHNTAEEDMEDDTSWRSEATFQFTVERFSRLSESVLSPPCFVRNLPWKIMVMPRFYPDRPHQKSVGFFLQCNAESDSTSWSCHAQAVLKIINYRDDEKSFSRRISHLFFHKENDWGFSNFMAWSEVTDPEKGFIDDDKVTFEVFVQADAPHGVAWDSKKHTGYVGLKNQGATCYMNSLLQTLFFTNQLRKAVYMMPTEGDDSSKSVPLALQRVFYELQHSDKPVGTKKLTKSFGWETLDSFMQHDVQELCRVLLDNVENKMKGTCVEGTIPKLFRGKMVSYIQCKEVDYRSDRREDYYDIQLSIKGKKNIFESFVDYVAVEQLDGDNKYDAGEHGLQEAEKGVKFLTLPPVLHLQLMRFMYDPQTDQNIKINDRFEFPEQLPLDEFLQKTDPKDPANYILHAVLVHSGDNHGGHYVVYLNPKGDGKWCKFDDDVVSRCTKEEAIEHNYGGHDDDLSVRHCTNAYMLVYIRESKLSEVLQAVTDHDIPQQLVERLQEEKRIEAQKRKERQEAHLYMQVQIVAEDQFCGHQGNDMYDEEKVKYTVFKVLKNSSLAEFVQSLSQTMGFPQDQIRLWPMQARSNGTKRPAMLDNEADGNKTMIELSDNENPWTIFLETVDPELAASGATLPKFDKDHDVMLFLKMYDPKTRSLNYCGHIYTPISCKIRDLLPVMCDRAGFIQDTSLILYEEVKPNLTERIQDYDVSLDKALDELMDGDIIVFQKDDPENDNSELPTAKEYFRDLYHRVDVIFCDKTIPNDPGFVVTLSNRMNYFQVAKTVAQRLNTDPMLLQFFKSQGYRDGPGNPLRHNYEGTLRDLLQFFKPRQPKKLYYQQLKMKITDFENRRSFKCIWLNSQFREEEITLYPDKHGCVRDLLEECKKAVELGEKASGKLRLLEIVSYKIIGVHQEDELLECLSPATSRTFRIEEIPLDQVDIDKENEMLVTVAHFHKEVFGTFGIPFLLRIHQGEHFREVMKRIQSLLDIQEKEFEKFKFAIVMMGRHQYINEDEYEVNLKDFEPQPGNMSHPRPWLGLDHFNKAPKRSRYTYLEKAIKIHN

| pIC50 [1] | Structure (SMILES) | other results |
| --- | --- | --- |
| > 6.60 | COCC(CC(=O)N1CCC(O)(Cn2cnc3c(-c4ccc(CN)cc4)n(C)nc3c2=O)CC1)c1ccccc1 (racemic) [Example 53, (R,S)-3-(4-(Aminomethyl)phenyl)-6-((4-hydroxy-1-(4-methoxy-3-phenylbutanoyl)piperidin-4-yl)methyl)-2-methyl-2H-pyrazolo[4,3-d]pyrimidin-7(6H)-one] |  |
| 6.00 to 6.60 | C[C@H](CC(=O)N1CCC(O)(Cn2cnc(NC3CCCC[C@H]3N)cc2=O)CC1)c1ccccc1 (mixture of isomers) [Example 63, rac-6-(((±-trans-1,2)-2-Aminocyclohexyl)amino)-3-((4-hydroxy-1-((R)-3-phenylbutanoyl)piperidin-4-yl)methyl)pyrimidin-4(3H)-one, Formic Acid] |  |
| 6.00 to 6.60 | C[C@H](CC(=O)N1CCC(O)(Cn2cnc(N[C@@H]3CCCC[C@@H]3N)cc2=O)CC1)c1ccccc1 (racemic) [Example 64, 6-(((±-cis-1,2)-2-Aminocyclohexyl)amino)-3-((4-hydroxy-1-((R)-3-phenylbutanoyl)piperidin-4-yl)methyl)pyrimidin-4(3H)-one, Formic Acid] |  |
|  | C[C@H](CC(=O)N1CCC(O)(Cn2cnc(N3C[C@@H]4C[C@H]3CN(C)C4)cc2=O)CC1)c1ccccc1 (single isomer, unassigned) [Example 180] | pIC50 [2]: > 6.60 |
|  | C[C@H](CC(=O)N1CCC(O)(Cn2cnc(N3C[C@H]4C[C@@H]3CN(C)C4)cc2=O)CC1)c1ccccc1 (single isomer, unassigned) [Example 181] | pIC50 [2]: 6.00 to 6.60 |
| 3.70 to 6.00 | C[C@H](CC(=O)N1CCC(O)(Cn2cnc(Cl)cc2=O)CC1)c1ccccc1 [Example 1, (R)-6-Chloro-3-((4-hydroxy-1-(3-phenylbutanoyl)piperidin-4-yl)methyl)pyrimidin-4(3H)-one] |  |
| 3.70 to 6.00 | C[C@H](CC(=O)N1CCC(O)(Cn2cnc(-c3ccncc3)cc2=O)CC1)c1ccccc1 [Example 2, (R)-3-((4-Hydroxy-1-(3-phenylbutanoyl)piperidin-4-yl)methyl)-6-(pyridin-4-yl)pyrimidin-4(3H)-one] |  |
|  | C[C@H](CC(=O)N1CCC(O)(Cn2cnc(-c3ccn[nH]3)cc2=O)CC1)c1ccccc1 [Example 3, (R)-3-((4-Hydroxy-1-(3-phenylbutanoyl)piperidin-4-yl)methyl)-6-(1H-pyrazol-5-yl)pyrimidin-4(3H)-one] | pIC50 [2]: 6.00 to 6.60 |
| 3.70 to 6.00 | C[C@H](CC(=O)N1CCC(O)(Cn2cnc(N)cc2=O)CC1)c1ccccc1 [Example 5, (R)-6-Amino-3-((4-hydroxy-1-(3-phenylbutanoyl)piperidin-4-yl)methyl)pyrimidin-4(3H)-one] |  |
| 3.70 to 6.00 | C[C@H](CC(=O)N1CCC(O)(Cn2cnc(N3CCN(C)CC3)cc2=O)CC1)c1ccccc1 [Example 8, (R)-3-((4-Hydroxy-1-(3-phenylbutanoyl)piperidin-4-yl)methyl)-6-(4-methylpiperazin-1-yl)pyrimidin-4(3H)-one] |  |
| 3.70 to 6.00 | COc1cc(=O)n(CC2(O)CCN(C(=O)C[C@@H](C)c3ccccc3)CC2)cn1 [Example 9, (R)-3-((4-Hydroxy-1-(3-phenylbutanoyl)piperidin-4-yl)methyl)-6-methoxypyrimidin-4(3H)-one] |  |
|  | C[C@H](CC(=O)N1CCC(O)(Cn2cnc(OCCN(C)C)cc2=O)CC1)c1ccccc1 [Example 10, (R)-6-(2-(Dimethylamino)ethoxy)-3-((4-hydroxy-1-(3-phenylbutanoyl)piperidin-4-yl)methyl)pyrimidin-4(3H)-one] | pIC50: 3.70 to 6.00 |
| > 6.60 | C[C@H](CC(=O)N1CCC(O)(Cn2cnc(N3CC[C@H](N)C3)cc2=O)CC1)c1ccccc1 [Example 12, 6-((S)-3-Aminopyrrolidin-1-yl)-3-((4-hydroxy-1-((R)-3-phenylbutanoyl)piperidin-4-yl)methyl)pyrimidin-4(3H)-one] |  |
|  | C[C@H](CC(=O)N1CCC(O)(Cn2cnc(N3CC(N)C3)cc2=O)CC1)c1ccccc1 [Example 13, (R)-6-(3-Aminoazetidin-1-yl)-3-((4-hydroxy-1-(3-phenylbutanoyl)piperidin-4-yl)methyl)pyrimidin-4(3H)-one] | pIC50 [2]: 6.00 to 6.60 |
| 3.70 to 6.00 | C[C@H](CC(=O)N1CCC(O)(Cn2cnc(Cl)c(N)c2=O)CC1)c1ccccc1 [Example 14, (R)-5-Amino-6-chloro-3-((4-hydroxy-1-(3-phenylbutanoyl)piperidin-4-yl)methyl)pyrimidin-4(3H)-one] |  |
| 3.70 to 6.00 | C[C@H](CC(=O)N1CCC(O)(Cn2cnc3c(ncn3C)c2=O)CC1)c1ccccc1 [Example 15, (R)-1-((4-Hydroxy-1-(3-phenylbutanoyl)piperidin-4-yl)methyl)-9-methyl-1H-purin-6(9H)-one] |  |
| 3.70 to 6.00 | C[C@H](CC(=O)N1CCC(O)(Cn2cnc3c(nc(-c4ccccc4)n3C)c2=O)CC1)c1ccccc1 [Example 16, (R)-1-((4-Hydroxy-1-(3-phenylbutanoyl)piperidin-4-yl)methyl)-9-methyl-8-phenyl-1H-purin-6(9H)-one] |  |
| > 6.60 | C[C@H](CC(=O)N1CCC(O)(Cn2cnc3c(ncn3-c3ccccc3)c2=O)CC1)c1ccccc1 [Example 17, (R)-1-((4-Hydroxy-1-(3-phenylbutanol)piperidin-4-yl)methyl)-9-phenyl-1H-purin-6(9H)-one] |  |
| 3.70 to 6.00 | C[C@H](CC(=O)N1CCC(O)(Cc2cnc3ccccn3c2=O)CC1)c1ccccc1 [Example 18, (R)-3-((4-Hydroxy-1-(3-phenylbutanoyl)piperidin-4-yl)methyl)-4H-pyrido[1,2-a]pyrimidin-4-one] |  |
| 3.70 to 6.00 | C[C@H](CC(=O)N1CCC(O)(Cc2cnc3c(-c4ccccc4)cccn3c2=O)CC1)c1ccccc1 [Example 19, (R)-3-((4-Hydroxy-1-(3-phenylbutanoyl)piperidin-4-yl)methyl)-9-phenyl-4H-pyrido[1,2-a]pyrimidin-4-one] |  |
| 3.70 to 6.00 | C[C@H](CC(=O)N1CCC(O)(Cn2cnc3cn(C)nc3c2=O)CC1)c1ccccc1 [Example 20, (R)-6-((4-Hydroxy-1-(3-phenylbutanoyl)piperidin-4-yl)methyl)-2-methyl-2H-pyrazolo[4,3-d]pyrimidin-7(6H)-one] | pIC50 (Table 3, effect of the R2 substituent, read-out: USP7 IC50): 5.52 |
|  | C[C@H](CC(=O)N1CCC(O)(Cn2cnc3c(C(F)(F)F)n(C)nc3c2=O)CC1)c1ccccc1 [Example 23, (R)-6-((4-Hydroxy-1-(3-phenylbutanoyl)piperidin-4-yl)methyl)-2-methyl-3-(trifluoromethyl)-2H-pyrazolo[4,3-d]pyrimidin-7(6H)-one] | pIC50 (USP7 IC50, Table 3, effect of the R2 substituent): 6.22; pIC50 [2]: 6.00 to 6.60 |
| 6.00 to 6.60 | C[C@H](CC(=O)N1CCC(O)(Cn2cnc3c(-c4ccncc4)n(C)nc3c2=O)CC1)c1ccccc1 [Example 26, (R)-6-((4-Hydroxy-1-(3-phenylbutanoyl)piperidin-4-yl)methyl)-2-methyl-3-(pyridin-4-yl)-2H-pyrazolo[4,3-d]pyrimidin-7(6H)-one] |  |
| > 6.60 | C[C@H](CC(=O)N1CCC(O)(Cn2cnc3c(C#CCO)n(C)nc3c2=O)CC1)c1ccccc1 [Example 31, (R)-6-((4-Hydroxy-1-(3-phenylbutanoyl)piperidin-4-yl)methyl)-3-(3-hydroxyprop-1-yn-1-yl)-2-methyl-2H-pyrazolo[4,3-d]pyrimidin-7(6H)-one] |  |
| 3.70 to 6.00 | CC(C)c1c2c(nn1C)C(=O)N(CC1(O)CCN(C(=O)C[C@@H](C)c3ccccc3)CC1)CN2 [Example 34, (R)-6-((4-Hydroxy-1-(3-phenylbutanoyl)piperidin-4-yl)methyl)-3-isopropyl-2-methyl-5,6-dihydro-2H-pyrazolo[4,3-d]pyrimidin-7(4H)-one] |  |
